We go through 25 molecules from article PMC3684613 (PLoS ONE, 2013).

Test [1] deals with P. falciparum 3D7. Briefly: DAPI stain fluorescent high content imaging assay, P. falciparum 3D7 (confirmatory screen, Avery). As to conditions: Plasmodium falciparum; for EC50: 3D7, read-out: EC50_nM; for inhibition of growth at 5 µM: 3D7, read-out: percent_inh @ 5 uM; for inhibition of growth at 2 µM: 3D7, read-out: percent_inh @ 2 uM.
Test [2] relates to P. falciparum 3D7. Also noted: method as in ChEMBL-NTD. As to conditions: ref ChEMBL-NTD, cited from earlier work.
The mark [3] stands for this setting: values follow the order of the source (GNF; GSK; StJude).
The mark [4] stands for this setting: original screening data, source (GSK, GNF, StJude), several values separated by ';' in order of sources.

Where two headings read alike, the source gives them in different places.

Regarding `CCN(CC)CCNc1ccnc2cc3ccccc3cc12` [MMV006303], the EC50 in test [1] is 391 nM; in test [2] (setting [3]) it was 28.6 nM.

Take `CN(C)c1ccc(C=Cc2nc(=O)c3ccccc3o2)cc1` [MMV006309]: in test [1], the EC50 is 51.5 nM and the inhibition of growth at 5 µM was 96%. In test [2] (source GSK (TCMDC id)), the EC50 was 44.6 nM.

As for `Cc1cc(Nc2cccc(F)c2)nc(NCc2ccccc2)n1` [MMV006319], in test [1], the EC50 was determined as 662 nM and the inhibition of growth at 2 µM is 97%. For the same molecule, in test [2] (setting [4]), the EC50 was 72.2 nM.

As to `O=C1c2ccccc2C2=Nc3ccccc3SC(c3cccc(F)c3)C12` (stereo not shown) [MMV006389], in test [1], the EC50 stood at 414 nM and the inhibition of growth at 5 µM amounted to 94%. Further, the EC50 in test [2] (source GNF (GNF-Pf ids)) is 86.7 nM.

As for `COc1cc(OC)c(N(C)C(=O)c2cc3c(s2)-c2ccccc2S(=O)(=O)C3)cc1Cl` [MMV006427], in test [1], the EC50 came to 78.2 nM and the inhibition of growth at 5 µM turned out to be 100%. Further, the EC50 in test [2] (source GNF (GNF-Pf id)) is 113 nM.

Take `Cc1cc(NC(=O)C2c3ccccc3C(=O)N(CC(C)C)C2c2cccs2)no1` (stereo not shown) [MMV006429]: in test [1], the EC50 is 32.8 nM and the inhibition of growth at 5 µM stood at 100%. Further, in test [2] (source GNF (GNF-Pf id)), the EC50 was 85.6 nM.

On to `CCCN(CCC)CC(O)COc1ccccc1C(=O)Nc1ccccc1` (stereo not shown) [MMV006455], for which the figures for the EC50 in test [1], in test [2] (source GNF (GNF-Pf id)) and in test [2] (source GSK (TCMDC id)) were 196 nM, 365 nM and 799 nM, respectively. For the same molecule, the inhibition of growth at 5 µM in test [1] came out at 98%.

In the case of `CCOC(=O)c1ccc2nc(-c3ccccc3)cc(O)c2c1` [MMV006457], in test [1], the EC50 is 118 nM and the inhibition of growth at 5 µM was 96%. Besides, the EC50 in test [2] (source GNF (GNF-Pf id)) was 549 nM.

Take `c1ccc2c(NCCc3c[nH]c4ccccc34)c3ccccc3nc2c1` [MMV006513]: in test [1], the EC50 was found to be 304 nM and the inhibition of growth at 5 µM worked out at 97%. For the same molecule, the EC50 in test [2] (source GNF (GNF-Pf ids)) was 86 nM.

Regarding `CCOc1ccc2nc(C)cc(Nc3ccc(Br)cc3)c2c1` [MMV006522], in test [1], the EC50 was 480 nM and the inhibition of growth at 2 µM is 96%. Further, the EC50 in test [2] (setting [3]) is 114 nM.

With `CCN(CC)CCNc1ncnc2c1[nH]c1ccc(Br)cc12` [MMV006545], the EC50 in test [1] was 707 nM; in test [2] (setting [4]) it was 288 nM.

With `Cc1cc(C)c2c(c1)OCN(Cc1ccccc1Cl)C2` [MMV006558], in test [1], the EC50 stood at 268 nM and the inhibition of growth at 5 µM was 98%. For the same molecule, the EC50 in test [2] (source GNF (GNF-Pf id)) is 192 nM.

For `Clc1ccc2[nH]c3c(NCCCN4CCOCC4)ncnc3c2c1` [MMV006587], the EC50 in test [1] is 700 nM; in test [2] (setting [4]), 109 nM.

`CCOC(=O)C1=CN(C)C=C(C(=O)OCC)C1c1cc(Br)c(OCC)c(OC)c1` [MMV006656]: in test [1], the EC50 amounted to 518 nM and the inhibition of growth at 5 µM was determined as 97%. Further, the EC50 in test [2] (setting [3]) was 913 nM.

For the molecule `CN(C)CCNc1cc(-c2ccccc2)nc2ccccc12` [MMV006704], in test [1], the EC50 was found to be 4000 nM and the inhibition of growth at 2 µM amounted to 92%. The EC50 in test [2] (setting [4]) is 692 nM.

`Cc1cc(N2CCN(C3CCCC3)CC2)n2c(nc3ccccc32)c1C#N` [MMV006706]: the EC50 in test [1] was 683 nM; in test [2] (setting [4]) it was 743 nM.

As to `Cc1cc(=O)oc2c1ccc1oc(C(=O)c3ccccc3)c(C)c12` [MMV006753], the inhibition of growth at 5 µM in test [1] stood at 94%. For the same molecule, in test [2] (source GNF (GNF-Pf ids)), the EC50 was 441 nM.

On to `CCOc1c(Br)cc(C2C(C(=O)OC)=CN(C)C=C2C(=O)OC)cc1OC` [MMV006764], for which the EC50 in test [1] was 512 nM; in test [2] (source GNF (GNF-Pf ids)) it was 292 nM. The inhibition of growth at 5 µM in test [1] came out at 96%.

As for `CC(C)CCNCC(O)Cn1c2ccccc2c2ccccc21` (stereo not shown) [MMV006787], in test [1], the EC50 was 473 nM and the inhibition of growth at 5 µM was found to be 97%. The EC50 in test [2] (source GNF (GNF-Pf ids)) is 201 nM.

Take `CCCCc1c(C)nc2c(OC)cccc2c1O` [MMV006820]: the figures for the EC50 in test [1] and in test [2] (setting [4]) were 4000 nM and 1690 nM, respectively. The inhibition of growth at 2 µM in test [1] stood at 92%.

As for `COc1ccc(Nc2cc(C)nc(NCc3ccccc3)n2)cc1` [MMV006825], the EC50 in test [1] was 467 nM; in test [2] (setting [3]), 151 nM.

Take `c1ccc2cc3c(Nc4ccc(N5CCOCC5)cc4)ccnc3cc2c1` [MMV006861]: in test [1], the EC50 is 251 nM and the inhibition of growth at 5 µM was found to be 97%. The EC50 in test [2] (source GNF (GNF-Pf id)) is 672 nM.

Turning to `CCOC(=O)c1cnc2ccc(Cl)cc2c1NCCCN(C)C` [MMV006882], the EC50 was 1190 nM in test [1] and 826 nM in test [2] (source GNF (GNF-Pf ids)). In addition, the inhibition of growth at 5 µM in test [1] worked out at 98%.

On to `C=CCc1c(C)nc2ccccc2c1O` [MMV006913], for which, in test [1], the EC50 turned out to be 1290 nM and the inhibition of growth at 5 µM came to 85%. For the same molecule, the EC50 in test [2] (setting [4]) is 707 nM.

In the case of `Cc1ccc(-c2cc3nc4c(c(O)n3n2)CCCC4)cc1` [MMV006937], the EC50 in test [1] is 396 nM; in test [2] (source GNF (GNF-Pf id)), 1600 nM. For the same molecule, the inhibition of growth at 5 µM in test [1] was determined as 73%.
